Experimental data: patent US20200197341A1, “IMMUNMODULATION FOR PREVENTION OF POOR HEALING OF MUSCULOSKELETAL INJURIES IN COMPROMISED PATIENTS” (CHARITÉ UNIVERSITÄTSMEDIZIN BERLIN, priority 2017, published 2020)
“Also recorded” adds a separate entry of the source.

Assays:
femur mouse osteotomies = assay: Mouse femur osteotomy with fibrin release system, μCT of newly formed bone; assay type: in vivo
Description: Mouse experiments were performed with 12-week-old C57BL/6 females (n=6, each sample type) (Charles River Laboratories) according to the policies and principles established by the Animal Welfare Act, the National Institutes of Health Guide for the Care and Use of Laboratory Animals, and the National Animal Welfare Guidelines. All animal experiments were approved by the local legal representative. Animals were kept under obligatory hygiene standards that were monitored according to the FELASA standards.
The osteotomy was performed on the left femur. After shaving and disinfecting the operation area of isoflurane-anesthetized animals, a lateral longitudinal incision of the skin (2 mm) from knee to hip was performed for a mid-diaphyseal approach to the femur. The femur was exposed by blunt preparation of Musculus vastus lateralis and Muscculus biceps femoris, carefully sparing the sciatic nerve. Serial drilling for pin placement (0.45 mm diameter) through the connector bar of the external fixator (MouseExFix, RlSystem, Davos, Switzerland) was performed, thus positioning the external fixator laterally in parallel to the femur. A 0.70 mm osteotomy was performed between the middle pins using a Gigli wire saw (RISystem, Davos, Switzerland). […]
The newly formed mineralized bone tissues were analyzed using high-resolution micro computed tomography (μCT). […]

[1] = tested on: drill hole in the diaphyseal and metaphyseal bone; assay: Sheep drill hole bone healing model, μCT evaluation of bone formation; assay type: in vivo; settings: after 3 and 9 weeks, Iloprost in collagen scaffold (burst release), applied immediately, 1 ml Ilomedin per two scaffolds
Excerpt: Prior publications, e.g. US 20150164853 A1, stated that immediate use of Iloprost locally to enhance bone healing is beneficial. To investigate this a high dose of Iloprost was used in a sheep bone healing model where the agent was applied in a collagen scaffold, which has a burst-release dynamic.
Bone formation has been analyzed in a drill hole model (Establishment of a preclinical ovine screening model for the investigation of bone tissue engineering strategies in cancellous and cortical bone defects. Pobloth A M, Johnson K A, Schell H, Kolarczik N, Wulsten D, Duda G N, Schmidt-Bleek K. BMC Musculoskelet Disord. 2016 Mar. 1; 17:111.). The empty control group and the collagen only group were used as negative controls while the autologous spongiosa group, the current gold standard in bone therapy, was used as a positive control. In the Ilomedin group a supraphysiological dosis of 1 ml Iloprost (Ilomedin, […] Infusionslosung, Bayer Vital GmbH, Leverkusen, Deutschland) per two scaffolds was used.

CC#CCC(C)[C@H](O)/C=C/[C@@H]1[C@H]2C/C(=C/CCCC(=O)O)C[C@H]2C[C@H]1O (stereo partly drawn) [Iloprost]
newly formed bone volume (BV) (femur mouse osteotomies; mouse femur osteotomy, 21 days healing, fibrin release system with 3 μM Iloprost in core, median, N=6, p=0.016 vs vehicle): 1.347 mm^3 | volumes of newly formed bone vs empty vehicle control (μCT) (femur mouse osteotomies; mouse, after 21 days of regeneration, Iloprost loaded release system): significantly increased volumes of newly formed bone | bone formation in a drill hole (μCT) [1]: No differences between the collagen group and the collagen Iloprost loaded group; also recorded: no enhanced bone formation was detectable
